The numbers were not newly measured in article PMC9516532, “A genetically encoded BRET-based SARS-CoV-2 M^pro protease activity sensor” (Communications Chemistry, 2022), which cites them from elsewhere.

The subject of this data set is P-gp. The conditions noted are these: reviewer's comment; ref ACS Infect. Dis. 2021, 7, 3, 586–597.

Each structure is given as a SMILES string.

As for `CC(C)C[C@H](NC(=O)OCc1ccccc1)C(=O)N[C@@H](C[C@@H]1CCNC1=O)C(O)S(=O)(=O)[O-].[Na+]` (stereo partly shown) [GC376], the P-gp substrate result is recorded as “known substrate of P-gp”.
